Test [1] deals with cyclododecanone monooxygenase (CDMO). As to the kind of experiment: Spectro-photometric activity assay (NADPH consumption at 340 nm), cell-free lysate containing CDMO. It is filed as biochemical, Rhodococcus species. Conditions: 0.25 mM Globanone, 0.3 mM NADPH, pH 9.0, 30° C. An excerpt:
(§1) The genes for the two Baeyer-Villiger Monooxygenases (BVMOs) cyclopentadecanone monooxygenase from a Pseudomonas species (CPDMO, Iwaki, H. et al., Appl. Environ. Microbiol. (2006), 72 (4): 2707-2720) and cyclododecanone monooxygenase from a Rhodococcus species (CDMO, Kostichka, K. et al., J. Bacteriol. (2001), 183 (21): 6478-6486) were cloned using standard molecular biology tools. For recombinant enzyme production in Escherichia coli an L-arabinose inducible vector derived from a pBAD plasmid carrying a kanamycin/neomycin resistance gene was used in an E. coli K-12 strain, in which the Larabinose catabolism is disrupted. Glycerol stocks were used to inoculate 5 ml overnight cultures (LB, 100 μg/ml neomycin). […]
(§2) Protein concentrations of the lysates were determined to calculate specific activities (Protein determination by Bradford). The concentrations of total protein in the cell-free extracts (CFEs) were determined using a modified protein-dye binding method as described by Bradford in Anal. Biochem. 72: 248-254 (1976).
(§3) To determine if the two BVMOs were active on Globanone® a spectro-photometric activity assay was applied. The assay makes use of the strong absorbance decrease at 340 nm upon consumption of the NADPH cofactor. […] The decrease of absorbance was followed for 3 minutes before substrate addition to detect potential, unspecific NADPH oxidation. […]

Test [2] deals with cyclopentadecanone monooxygenase (CPDMO). Nature of the test: Spectro-photometric activity assay (NADPH consumption at 340 nm), cell-free lysate containing CPDMO. The test is classed as biochemical, Pseudomonas species. Conditions: 0.25 mM Globanone, 0.3 mM NADPH, pH 9.0, 30° C.
Description: as §1, §2, §3

`O=C1CCCCCCC=CCCCCCCC1` [Globanone®]: the volumetric activity in test [1] (E. coli cell-free lysate containing CDMO (18.6 mg/ml protein)) was 3.71 U/ml; in test [2] (E. coli cell-free lysate containing CPDMO (9.9 mg/ml protein)), 0.04 U/ml. Besides, the specific activity in test [1] (per mg total cell-free lysate protein, CDMO lysate) was found to be 0.20 U/mg; in test [2] (per mg total cell-free lysate protein, CPDMO lysate) it was 0.004 U/mg.

For the origin of these results see patent US20260028654A1, “BIOTECHNOLOGICAL PRODUCTION OF MACROCYCLIC LACTONES” (SYMRISE AG, priority 2022, published 2026).
